What was measured:
[1] = tested on: p(dAdT)2 (DNA, polymer) AT; test: UV thermal denaturation, 260 nm; conditions: Na+ (sodium cacodylate, I = 0.05 M), pH 7, polynucleotide 2×10^-5 M, per base
pApU (RNA, polymer) A/U [2] = test: UV thermal denaturation, 260 nm; conditions: Na+ (sodium cacodylate, I = 0.05 M), pH 7, per base
[3] = tested on: p(dAdT)2 (DNA, polymer) AT; test: fluorimetric titration, Scatchard fit; conditions: Na+ (sodium cacodylate, I = 0.05 M); pH 7.0; compound 5×10^-7 M; n fixed at 0.1; per base
[4] = tested on: p(dGdC)2 (DNA, polymer) GC; test: fluorimetric titration, Scatchard fit; conditions: Na+ (sodium cacodylate, I = 0.05 M); pH 7.0; compound 5×10^-7 M; n fixed at 0.1; per base
pApU (RNA, polymer) A/U [5] = test: fluorimetric titration, Scatchard fit; conditions: Na+ (sodium cacodylate, I = 0.05 M); pH 7.0; compound 5×10^-7 M; n fixed at 0.1; per base
[6] = r [compound]/[polynucleotide] = 0.3

SMILES: C[n+]1ccc(C#Cc2c(F)c(F)c(C#Cc3cc[n+](C)cc3)c(F)c2F)cc1
- ΔTm [1, 6]: 7.0 ± 0.5 °C
- ΔTm (pApU (RNA, polymer) A/U [2]; [6]): 1.0 ± 0.5 °C
- log Ks [3]: 5.2 M^-1
- log Ks [4]: 5.1 M^-1
- log Ks (pApU (RNA, polymer) A/U [5]): 5.0 M^-1

SMILES: C[n+]1ccc(C#Cc2c3ccccc3c(C#Cc3cc[n+](C)cc3)c3ccccc23)cc1
- ΔTm ([1]; r [compound]/[polynucleotide] = 0.2): 37 ± 0.5 °C
- ΔTm (pApU (RNA, polymer) A/U [2]; r [compound]/[polynucleotide] = 0.2, polynucleotide 2×10^-5 M): 39.0 ± 0.5 °C
- log Ks [3]: 6.6 M^-1
- log Ks [4]: 7.0 M^-1
- log Ks (pApU (RNA, polymer) A/U [5]): 5.3 M^-1

SMILES: C[n+]1ccc(C#Cc2ccc(C#Cc3cc[n+](C)cc3)cc2)cc1
- ΔTm [1, 6]: 2.0 ± 0.5 °C
- ΔTm (pApU (RNA, polymer) A/U [2]; [6]): 0 ± 0.5 °C
- log Ks [3]: 4.5 M^-1
- log Ks [4]: 5.9 M^-1
- log Ks (pApU (RNA, polymer) A/U [5]): 5.3 M^-1

From publication PMC9400870 (2022)
